Assay results as given in ChEMBL document CHEMBL4270624, “Synthesis and antibacterial evaluation of 13-substituted cycloberberine derivatives as a novel class of anti-MRSA agents” (Eur J Med Chem, 2018).

Tested on: Staphylococcus aureus
Experiment: Antibacterial activity against methicillin-sensitive Staphylococcus aureus ATCC 29213 after 18 hrs by agar dilution method
Assay type: functional
Settings: ATCC 29213, 18 h

Row | Structure (SMILES) | MIC [µg/mL]
1 | COc1ccc2c(c[n+]3c4c2cc(Cc2ccc([N+](=O)[O-])cc2)c2c5c(cc(c24)CC3)OCO5)c1OC.[Br-] | > 64
2 | COc1ccc2c(c[n+]3c4c2cc(Cc2ccc(Cl)cc2)c2c5c(cc(c24)CC3)OCO5)c1OC.[Br-] | 8
3 | COc1ccc2c(c[n+]3c4c2cc(Cc2ccccc2[N+](=O)[O-])c2c5c(cc(c24)CC3)OCO5)c1OC.[Br-] | 8
4 | COc1ccc2c(c[n+]3c4c2cc(Cc2ccc(F)cc2)c2c5c(cc(c24)CC3)OCO5)c1OC.[Br-] | 4
5 | COc1ccc2c(c[n+]3c4c2cc(Cc2ccncc2)c2c5c(cc(c24)CC3)OCO5)c1OC.[Br-] | 64
6 | COc1ccc2c(c[n+]3c4c2cc(Cc2cc(C(F)(F)F)cc(C(F)(F)F)c2)c2c5c(cc(c24)CC3)OCO5)c1OC.[Br-] | > 64

Tested on: Staphylococcus aureus
Experiment: Antibacterial activity against methicillin-sensitive Staphylococcus aureus 16-1 clinical isolate after 18 hrs by agar dilution method
Assay type: functional
Settings: 16-1, 18 h

Row | Structure (SMILES) | MIC [µg/mL]
7 | COc1ccc2c(c[n+]3c4c2cc(Cc2ccc([N+](=O)[O-])cc2)c2c5c(cc(c24)CC3)OCO5)c1OC.[Br-] | > 64
8 | COc1ccc2c(c[n+]3c4c2cc(Cc2ccc(Cl)cc2)c2c5c(cc(c24)CC3)OCO5)c1OC.[Br-] | 8
9 | COc1ccc2c(c[n+]3c4c2cc(Cc2ccccc2[N+](=O)[O-])c2c5c(cc(c24)CC3)OCO5)c1OC.[Br-] | 8
10 | COc1ccc2c(c[n+]3c4c2cc(Cc2ccc(F)cc2)c2c5c(cc(c24)CC3)OCO5)c1OC.[Br-] | 4
11 | COc1ccc2c(c[n+]3c4c2cc(Cc2ccncc2)c2c5c(cc(c24)CC3)OCO5)c1OC.[Br-] | 64
12 | COc1ccc2c(c[n+]3c4c2cc(Cc2cc(C(F)(F)F)cc(C(F)(F)F)c2)c2c5c(cc(c24)CC3)OCO5)c1OC.[Br-] | > 64

Tested on: Staphylococcus aureus
Experiment: Antibacterial activity against methicillin-resistant Staphylococcus aureus ATCC 33591 after 18 hrs by agar dilution method
Assay type: functional
Settings: ATCC 33591, 18 h

Row | Structure (SMILES) | MIC [µg/mL]
13 | COc1ccc2c(c[n+]3c4c2cc(Cc2ccc([N+](=O)[O-])cc2)c2c5c(cc(c24)CC3)OCO5)c1OC.[Br-] | > 64
14 | COc1ccc2c(c[n+]3c4c2cc(Cc2ccc(Cl)cc2)c2c5c(cc(c24)CC3)OCO5)c1OC.[Br-] | 8
15 | COc1ccc2c(c[n+]3c4c2cc(Cc2ccccc2[N+](=O)[O-])c2c5c(cc(c24)CC3)OCO5)c1OC.[Br-] | 16
16 | COc1ccc2c(c[n+]3c4c2cc(Cc2ccc(F)cc2)c2c5c(cc(c24)CC3)OCO5)c1OC.[Br-] | 4
17 | COc1ccc2c(c[n+]3c4c2cc(Cc2ccncc2)c2c5c(cc(c24)CC3)OCO5)c1OC.[Br-] | 64
18 | COc1ccc2c(c[n+]3c4c2cc(Cc2cc(C(F)(F)F)cc(C(F)(F)F)c2)c2c5c(cc(c24)CC3)OCO5)c1OC.[Br-] | > 64

Tested on: Staphylococcus aureus
Experiment: Antibacterial activity against methicillin-resistant Staphylococcus aureus ATCC 43300 after 18 hrs by agar dilution method
Assay type: functional
Settings: ATCC 43300, 18 h

Row | Structure (SMILES) | MIC [µg/mL]
19 | COc1ccc2c(c[n+]3c4c2cc(Cc2ccc([N+](=O)[O-])cc2)c2c5c(cc(c24)CC3)OCO5)c1OC.[Br-] | > 64
20 | COc1ccc2c(c[n+]3c4c2cc(Cc2ccc(Cl)cc2)c2c5c(cc(c24)CC3)OCO5)c1OC.[Br-] | 32
21 | COc1ccc2c(c[n+]3c4c2cc(Cc2ccccc2[N+](=O)[O-])c2c5c(cc(c24)CC3)OCO5)c1OC.[Br-] | 32
22 | COc1ccc2c(c[n+]3c4c2cc(Cc2ccc(F)cc2)c2c5c(cc(c24)CC3)OCO5)c1OC.[Br-] | 4
23 | COc1ccc2c(c[n+]3c4c2cc(Cc2ccncc2)c2c5c(cc(c24)CC3)OCO5)c1OC.[Br-] | 64
24 | COc1ccc2c(c[n+]3c4c2cc(Cc2cc(C(F)(F)F)cc(C(F)(F)F)c2)c2c5c(cc(c24)CC3)OCO5)c1OC.[Br-] | > 64

Tested on: Staphylococcus aureus
Experiment: Antibacterial activity against methicillin-resistant Staphylococcus aureus ATCC BAA-976 after 18 hrs by agar dilution method
Assay type: functional
Settings: ATCC BAA-976, 18 h

Row | Structure (SMILES) | MIC [µg/mL]
25 | COc1ccc2c(c[n+]3c4c2cc(Cc2ccc([N+](=O)[O-])cc2)c2c5c(cc(c24)CC3)OCO5)c1OC.[Br-] | > 64
26 | COc1ccc2c(c[n+]3c4c2cc(Cc2ccc(Cl)cc2)c2c5c(cc(c24)CC3)OCO5)c1OC.[Br-] | 8
27 | COc1ccc2c(c[n+]3c4c2cc(Cc2ccccc2[N+](=O)[O-])c2c5c(cc(c24)CC3)OCO5)c1OC.[Br-] | 8
28 | COc1ccc2c(c[n+]3c4c2cc(Cc2ccc(F)cc2)c2c5c(cc(c24)CC3)OCO5)c1OC.[Br-] | 4
29 | COc1ccc2c(c[n+]3c4c2cc(Cc2ccncc2)c2c5c(cc(c24)CC3)OCO5)c1OC.[Br-] | 64
30 | COc1ccc2c(c[n+]3c4c2cc(Cc2cc(C(F)(F)F)cc(C(F)(F)F)c2)c2c5c(cc(c24)CC3)OCO5)c1OC.[Br-] | > 64

Tested on: Staphylococcus aureus
Experiment: Antibacterial activity against methicillin-resistant Staphylococcus aureus ATCC BAA-1708 after 18 hrs by agar dilution method
Assay type: functional
Settings: ATCC BAA-1708, 18 h

Row | Structure (SMILES) | MIC [µg/mL]
31 | COc1ccc2c(c[n+]3c4c2cc(Cc2ccc([N+](=O)[O-])cc2)c2c5c(cc(c24)CC3)OCO5)c1OC.[Br-] | > 64
32 | COc1ccc2c(c[n+]3c4c2cc(Cc2ccc(Cl)cc2)c2c5c(cc(c24)CC3)OCO5)c1OC.[Br-] | 32
33 | COc1ccc2c(c[n+]3c4c2cc(Cc2ccccc2[N+](=O)[O-])c2c5c(cc(c24)CC3)OCO5)c1OC.[Br-] | 64
34 | COc1ccc2c(c[n+]3c4c2cc(Cc2ccc(F)cc2)c2c5c(cc(c24)CC3)OCO5)c1OC.[Br-] | 8
35 | COc1ccc2c(c[n+]3c4c2cc(Cc2ccncc2)c2c5c(cc(c24)CC3)OCO5)c1OC.[Br-] | 64
36 | COc1ccc2c(c[n+]3c4c2cc(Cc2cc(C(F)(F)F)cc(C(F)(F)F)c2)c2c5c(cc(c24)CC3)OCO5)c1OC.[Br-] | > 64

Tested on: Staphylococcus aureus
Experiment: Antibacterial activity against methicillin-resistant Staphylococcus aureus 13-18 clinical isolate after 18 hrs by agar dilution method
Assay type: functional
Settings: 13-18, 18 h

Row | Structure (SMILES) | MIC [µg/mL]
37 | COc1ccc2c(c[n+]3c4c2cc(Cc2ccc([N+](=O)[O-])cc2)c2c5c(cc(c24)CC3)OCO5)c1OC.[Br-] | > 64
38 | COc1ccc2c(c[n+]3c4c2cc(Cc2ccc(Cl)cc2)c2c5c(cc(c24)CC3)OCO5)c1OC.[Br-] | 8
39 | COc1ccc2c(c[n+]3c4c2cc(Cc2ccccc2[N+](=O)[O-])c2c5c(cc(c24)CC3)OCO5)c1OC.[Br-] | 8
40 | COc1ccc2c(c[n+]3c4c2cc(Cc2ccc(F)cc2)c2c5c(cc(c24)CC3)OCO5)c1OC.[Br-] | 4
41 | COc1ccc2c(c[n+]3c4c2cc(Cc2ccncc2)c2c5c(cc(c24)CC3)OCO5)c1OC.[Br-] | 64
42 | COc1ccc2c(c[n+]3c4c2cc(Cc2cc(C(F)(F)F)cc(C(F)(F)F)c2)c2c5c(cc(c24)CC3)OCO5)c1OC.[Br-] | > 64

Tested on: Staphylococcus aureus
Experiment: Antibacterial activity against methicillin-resistant Staphylococcus aureus 13-23 clinical isolate after 18 hrs by agar dilution method
Assay type: functional
Settings: 13-23, 18 h

Row | Structure (SMILES) | MIC [µg/mL]
43 | COc1ccc2c(c[n+]3c4c2cc(Cc2ccc([N+](=O)[O-])cc2)c2c5c(cc(c24)CC3)OCO5)c1OC.[Br-] | > 64
44 | COc1ccc2c(c[n+]3c4c2cc(Cc2ccc(Cl)cc2)c2c5c(cc(c24)CC3)OCO5)c1OC.[Br-] | 8
45 | COc1ccc2c(c[n+]3c4c2cc(Cc2ccccc2[N+](=O)[O-])c2c5c(cc(c24)CC3)OCO5)c1OC.[Br-] | 16
46 | COc1ccc2c(c[n+]3c4c2cc(Cc2ccc(F)cc2)c2c5c(cc(c24)CC3)OCO5)c1OC.[Br-] | 2
47 | COc1ccc2c(c[n+]3c4c2cc(Cc2ccncc2)c2c5c(cc(c24)CC3)OCO5)c1OC.[Br-] | 32
48 | COc1ccc2c(c[n+]3c4c2cc(Cc2cc(C(F)(F)F)cc(C(F)(F)F)c2)c2c5c(cc(c24)CC3)OCO5)c1OC.[Br-] | > 64

Tested on: Staphylococcus aureus
Experiment: Antibacterial activity against methicillin-resistant Staphylococcus aureus 16-30 clinical isolate after 18 hrs by agar dilution method
Assay type: functional
Settings: 16-30, 18 h

Row | Structure (SMILES) | MIC [µg/mL]
49 | COc1ccc2c(c[n+]3c4c2cc(Cc2ccc([N+](=O)[O-])cc2)c2c5c(cc(c24)CC3)OCO5)c1OC.[Br-] | > 64
50 | COc1ccc2c(c[n+]3c4c2cc(Cc2ccc(Cl)cc2)c2c5c(cc(c24)CC3)OCO5)c1OC.[Br-] | 4
51 | COc1ccc2c(c[n+]3c4c2cc(Cc2ccccc2[N+](=O)[O-])c2c5c(cc(c24)CC3)OCO5)c1OC.[Br-] | 8
52 | COc1ccc2c(c[n+]3c4c2cc(Cc2ccc(F)cc2)c2c5c(cc(c24)CC3)OCO5)c1OC.[Br-] | 4
53 | COc1ccc2c(c[n+]3c4c2cc(Cc2ccncc2)c2c5c(cc(c24)CC3)OCO5)c1OC.[Br-] | 64
54 | COc1ccc2c(c[n+]3c4c2cc(Cc2cc(C(F)(F)F)cc(C(F)(F)F)c2)c2c5c(cc(c24)CC3)OCO5)c1OC.[Br-] | > 64

Tested on: Staphylococcus aureus
Experiment: Antibacterial activity against methicillin-resistant Staphylococcus aureus 16-34 clinical isolate after 18 hrs by agar dilution method
Assay type: functional
Settings: 16-34, 18 h

Row | Structure (SMILES) | MIC [µg/mL]
55 | COc1ccc2c(c[n+]3c4c2cc(Cc2ccc([N+](=O)[O-])cc2)c2c5c(cc(c24)CC3)OCO5)c1OC.[Br-] | > 64
56 | COc1ccc2c(c[n+]3c4c2cc(Cc2ccc(Cl)cc2)c2c5c(cc(c24)CC3)OCO5)c1OC.[Br-] | 4
57 | COc1ccc2c(c[n+]3c4c2cc(Cc2ccccc2[N+](=O)[O-])c2c5c(cc(c24)CC3)OCO5)c1OC.[Br-] | 8
58 | COc1ccc2c(c[n+]3c4c2cc(Cc2ccc(F)cc2)c2c5c(cc(c24)CC3)OCO5)c1OC.[Br-] | 4
59 | COc1ccc2c(c[n+]3c4c2cc(Cc2ccncc2)c2c5c(cc(c24)CC3)OCO5)c1OC.[Br-] | 64
60 | COc1ccc2c(c[n+]3c4c2cc(Cc2cc(C(F)(F)F)cc(C(F)(F)F)c2)c2c5c(cc(c24)CC3)OCO5)c1OC.[Br-] | > 64
